{"source": "patent US20090068290A1", "about": "“BIFEPRUNOX DOSES FOR TREATING SCHIZOPHRENIA” (priority 2006, published 2009)", "assay_type_in_all_cases": "in vivo, human", "key": {"[1]": {"tested_on": "adult subjects with schizophrenia", "experiment": "PANSS negative subscale score, Clinical Study One", "details": "ITT; for PANSS Negative Subscale Score, Trt Effect (bifeprunox—placebo): ANCOVA", "experimental": "There were five treatment groups in this study. […] Study medication was administered once daily. After Baseline measurements were performed, the titration phase was begun. Bifeprunox treated subjects were titrated up to 5 mg, 10 mg or 20 mg according to a standardized titration schedule (Day 1: 0.125 mg, Day 2: 0.25 mg, Day 3: 0.5 mg, Day 4: 1.0 mg, Day 5: 2.0 mg, Day 6: 5.0 mg, Day 7: 10.0 mg, Day 8: 20 mg). When the assigned dose was reached, subjects were maintained at that dose for the remainder of the six-week treatment period.\nThe change in the Positive and Negative Symptom Scale (PANSS) total score, from baseline to endpoint, was the primary outcome measure. Secondary efficacy measures included: PANSS positive, PANSS negative, PANSS general psychopathology (GPP) score, PANSS-derived Brief Psychiatric Rating Scale (BPRS) score, Clinical Global Impressions-Severity of Illness (CGI-S), CGI-Improvement (CGI-I) scores, and responder rates. Safety and tolerability evaluations included extrapyramidal symptoms (EPS), weight gain, lipid profile, and serum prolactin."}, "[2]": {"tested_on": "adult subjects with schizophrenia", "experiment": "PANSS positive symptom subscale score, Clinical Study Two", "details": "LOCF, ITT; for PANSS Positive Symptom Subscale Score, Trt Effect (bifeprunox—placebo): ANCOVA", "experimental": "(§1) Rating scale assessments were performed weekly, except for week 5, to measure the change from baseline to endpoint of the PANSS total score. Other assessments included: PANSS positive symptom subscale score, PANSS negative symptom subscale score, PANSS general pschopathology subscale score, BPRS total score, BPRS psychosis score, the CGI-S score, the CGI-I score, responder rates based on the PANSS total score, and the Calgary Depression Scale for Schizophrenia (CDSS). […]\n(§2) Subjects who completed this study had the option to continue in the long-term. […] Risperidone-treated subjects were titrated from 2 mg to 6 mg daily over a three-day period and were subsequently maintained at 6 mg/day for the remainder of the treatment period. […] Blood samples were also obtained at Screening/Baseline, Week 3, and Week 6 for clinical laboratory assessments."}, "[3]": {"tested_on": "adult subjects with schizophrenia", "experiment": "Calgary Depression Scale for Schizophrenia (CDSS), Clinical Study Two", "details": "LOCF", "experimental": "as §1, §2"}, "[4]": {"details": "Bifeprunox 10 mg, Endpoint LOCF"}, "[5]": {"details": "Bifeprunox 20 mg, Endpoint LOCF"}, "[6]": {"details": "Bifeprunox 30 mg, Week 6/Endpoint"}, "[7]": {"details": "Bifeprunox 40 mg, Week 6/Endpoint"}}, "data": [{"smiles": "O=c1[nH]c2cccc(N3CCN(Cc4cccc(-c5ccccc5)c4)CC3)c2o1", "note": "[Bifeprunox, 7-[4-([1,1′-biphenyl]-3-ylmethyl)-1-piperazinyl]-2(3H)-benzoxazolone]", "values": [{"measurement": "Change from Baseline in PANSS Negative Subscale Score, Mean (S.D.)", "setting": "[1]; Bifeprunox 5 mg, Endpoint LOCF", "value": "−2.2 (4.9)"}, {"measurement": "Change from Baseline in PANSS Negative Subscale Score, Median", "setting": "[1]; Bifeprunox 5 mg, Endpoint LOCF", "value": "−2"}, {"measurement": "PANSS Negative Subscale Score, Trt Effect (bifeprunox—placebo)", "setting": "[1]; Bifeprunox 5 mg, Endpoint LOCF", "value": "−1.0"}, {"measurement": "Change from Baseline in PANSS Negative Subscale Score, Mean (S.D.)", "setting": "[1]; Bifeprunox 5 mg, Week 1, LOCF", "value": "−1.1 (3.9)"}, {"measurement": "Change from Baseline in PANSS Negative Subscale Score, Median", "setting": "[1]; Bifeprunox 5 mg, Week 1, LOCF", "value": "−1"}, {"measurement": "Change from Baseline in PANSS Negative Subscale Score, Mean (S.D.)", "setting": "[1]; Bifeprunox 5 mg, Week 2, LOCF", "value": "−1.8 (4.4)"}, {"measurement": "Change from Baseline in PANSS Negative Subscale Score, Median", "setting": "[1]; Bifeprunox 5 mg, Week 2, LOCF", "value": "−2"}, {"measurement": "Change from Baseline in PANSS Negative Subscale Score, Mean (S.D.)", "setting": "[1]; Bifeprunox 5 mg, Week 3, LOCF", "value": "−1.8 (4.7)"}, {"measurement": "Change from Baseline in PANSS Negative Subscale Score, Median", "setting": "[1]; Bifeprunox 5 mg, Week 3, LOCF", "value": "−2"}, {"measurement": "Change from Baseline in PANSS Negative Subscale Score, Mean (S.D.)", "setting": "[1]; Bifeprunox 5 mg, Week 4, LOCF", "value": "−2.0 (4.9)"}, {"measurement": "Change from Baseline in PANSS Negative Subscale Score, Median", "setting": "[1]; Bifeprunox 5 mg, Week 4, LOCF", "value": "−1"}, {"measurement": "Change from Baseline in PANSS Negative Subscale Score, Mean (S.D.)", "setting": "[1]; [4]", "value": "−1.7 (4.7)"}, {"measurement": "Change from Baseline in PANSS Negative Subscale Score, Median", "setting": "[1]; [4]", "value": "−1"}, {"measurement": "Change from Baseline in PANSS Negative Subscale Score, Mean (S.D.)", "setting": "[1]; Bifeprunox 10 mg, Week 1, LOCF", "value": "−1.4 (3.4)"}, {"measurement": "Change from Baseline in PANSS Negative Subscale Score, Median", "setting": "[1]; Bifeprunox 10 mg, Week 1, LOCF", "value": "−1"}, {"measurement": "Change from Baseline in PANSS Negative Subscale Score, Mean (S.D.)", "setting": "[1]; Bifeprunox 10 mg, Week 2, LOCF", "value": "−1.5 (4.2)"}, {"measurement": "Change from Baseline in PANSS Negative Subscale Score, Median", "setting": "[1]; Bifeprunox 10 mg, Week 2, LOCF", "value": "−1"}, {"measurement": "Change from Baseline in PANSS Negative Subscale Score, Mean (S.D.)", "setting": "[1]; Bifeprunox 10 mg, Week 3, LOCF", "value": "−1.7 (5.0)"}, {"measurement": "Change from Baseline in PANSS Negative Subscale Score, Median", "setting": "[1]; Bifeprunox 10 mg, Week 3, LOCF", "value": "−1"}, {"measurement": "Change from Baseline in PANSS Negative Subscale Score, Mean (S.D.)", "setting": "[1]; Bifeprunox 10 mg, Week 4, LOCF", "value": "−1.5 (4.6)"}, {"measurement": "Change from Baseline in PANSS Negative Subscale Score, Median", "setting": "[1]; Bifeprunox 10 mg, Week 4, LOCF", "value": "−1"}, {"measurement": "Change from Baseline in PANSS Negative Subscale Score, Mean (S.D.)", "setting": "[1]; [5]", "value": "−2.6 (5.3)"}, {"measurement": "Change from Baseline in PANSS Negative Subscale Score, Median", "setting": "[1]; [5]", "value": "−2"}, {"measurement": "PANSS Negative Subscale Score, Trt Effect (bifeprunox—placebo)", "setting": "[1]; [5]", "value": "−1.4"}, {"measurement": "Change from Baseline in PANSS Negative Subscale Score, Mean (S.D.)", "setting": "[1]; Bifeprunox 20 mg, Week 1, LOCF", "value": "−1.6 (3.4)"}, {"measurement": "Change from Baseline in PANSS Negative Subscale Score, Median", "setting": "[1]; Bifeprunox 20 mg, Week 1, LOCF", "value": "−1"}, {"measurement": "Change from Baseline in PANSS Negative Subscale Score, Mean (S.D.)", "setting": "[1]; Bifeprunox 20 mg, Week 2, LOCF", "value": "−2.0 (4.2)"}, {"measurement": "Change from Baseline in PANSS Negative Subscale Score, Median", "setting": "[1]; Bifeprunox 20 mg, Week 2, LOCF", "value": "−1"}, {"measurement": "Change from Baseline in PANSS Negative Subscale Score, Mean (S.D.)", "setting": "[1]; Bifeprunox 20 mg, Week 3, LOCF", "value": "−2.7 (4.4)"}, {"measurement": "Change from Baseline in PANSS Negative Subscale Score, Mean (S.D.)", "setting": "[1]; Bifeprunox 20 mg, Week 4, LOCF", "value": "−2.5 (4.6)"}, {"measurement": "Change from Baseline in PANSS Negative Subscale Score, Median", "setting": "[1]; Bifeprunox 20 mg, Week 4, LOCF", "value": "−2"}, {"measurement": "Change from Baseline in PANSS Positive Symptom Subscale Score, Mean (SD)", "setting": "[2]; Bifeprunox 30 mg, Week 1", "value": "−2.3 (3.6)"}, {"measurement": "Change from Baseline in PANSS Positive Symptom Subscale Score, Median", "setting": "[2]; Bifeprunox 30 mg, Week 1", "value": "−2"}, {"measurement": "Change from Baseline in PANSS Positive Symptom Subscale Score, Mean (SD)", "setting": "[2]; Bifeprunox 30 mg, Week 2", "value": "−4.1 (5.3)"}, {"measurement": "Change from Baseline in PANSS Positive Symptom Subscale Score, Median", "setting": "[2]; Bifeprunox 30 mg, Week 2", "value": "−3"}, {"measurement": "Change from Baseline in PANSS Positive Symptom Subscale Score, Mean (SD)", "setting": "[2]; Bifeprunox 30 mg, Week 3", "value": "−4.5 (5.6)"}, {"measurement": "Change from Baseline in PANSS Positive Symptom Subscale Score, Median", "setting": "[2]; Bifeprunox 30 mg, Week 3", "value": "−4"}, {"measurement": "Change from Baseline in PANSS Positive Symptom Subscale Score, Mean (SD)", "setting": "[2]; Bifeprunox 30 mg, Week 4", "value": "−4.4 (5.9)"}, {"measurement": "Change from Baseline in PANSS Positive Symptom Subscale Score, Median", "setting": "[2]; Bifeprunox 30 mg, Week 4", "value": "−4"}, {"measurement": "Change from Baseline in PANSS Positive Symptom Subscale Score, Mean (SD)", "setting": "[2]; [6]", "value": "−4.5 (6.6)"}, {"measurement": "Change from Baseline in PANSS Positive Symptom Subscale Score, Median", "setting": "[2]; [6]", "value": "−4"}, {"measurement": "PANSS Positive Symptom Subscale Score, Trt Effect (bifeprunox—placebo)", "setting": "[2]; [6]", "value": "−1.9"}, {"measurement": "Change from Baseline in PANSS Positive Symptom Subscale Score, Mean (SD)", "setting": "[2]; Bifeprunox 40 mg, Week 1", "value": "−2.8 (3.9)"}, {"measurement": "Change from Baseline in PANSS Positive Symptom Subscale Score, Median", "setting": "[2]; Bifeprunox 40 mg, Week 1", "value": "−2"}, {"measurement": "Change from Baseline in PANSS Positive Symptom Subscale Score, Mean (SD)", "setting": "[2]; Bifeprunox 40 mg, Week 2", "value": "−3.6 (5.7)"}, {"measurement": "Change from Baseline in PANSS Positive Symptom Subscale Score, Median", "setting": "[2]; Bifeprunox 40 mg, Week 2", "value": "−3"}, {"measurement": "Change from Baseline in PANSS Positive Symptom Subscale Score, Mean (SD)", "setting": "[2]; Bifeprunox 40 mg, Week 3", "value": "−4.1 (6.3)"}, {"measurement": "Change from Baseline in PANSS Positive Symptom Subscale Score, Median", "setting": "[2]; Bifeprunox 40 mg, Week 3", "value": "−4"}, {"measurement": "Change from Baseline in PANSS Positive Symptom Subscale Score, Mean (SD)", "setting": "[2]; Bifeprunox 40 mg, Week 4", "value": "−3.7 (6.6)"}, {"measurement": "Change from Baseline in PANSS Positive Symptom Subscale Score, Median", "setting": "[2]; Bifeprunox 40 mg, Week 4", "value": "−3"}, {"measurement": "Change from Baseline in PANSS Positive Symptom Subscale Score, Mean (SD)", "setting": "[2]; [7]", "value": "−4.2 (6.9)"}, {"measurement": "Change from Baseline in PANSS Positive Symptom Subscale Score, Median", "setting": "[2]; [7]", "value": "−4"}, {"measurement": "PANSS Positive Symptom Subscale Score, Trt Effect (bifeprunox—placebo)", "setting": "[2]; [7]", "value": "−1.7"}, {"measurement": "CDSS Total Score, Trt Effect", "setting": "[3]; 30 mg versus placebo, Week 6/Endpoint", "value": "−0.38"}, {"measurement": "Change from Baseline in CDSS Total Score, Mean (SD)", "setting": "[3]; 30 mg, Week 1", "value": "−0.01 (2.90)"}, {"measurement": "Change from Baseline in CDSS Total Score, Median", "setting": "[3]; 30 mg, Week 1", "value": 0.0}, {"measurement": "Change from Baseline in CDSS Total Score, Mean (SD)", "setting": "[3]; 30 mg, Week 2", "value": "−0.51 (3.37)"}, {"measurement": "Change from Baseline in CDSS Total Score, Median", "setting": "[3]; 30 mg, Week 2", "value": 0.0}, {"measurement": "Change from Baseline in CDSS Total Score, Mean (SD)", "setting": "[3]; 30 mg, Week 3", "value": "−0.51 (3.56)"}, {"measurement": "Change from Baseline in CDSS Total Score, Median", "setting": "[3]; 30 mg, Week 3", "value": 0.0}, {"measurement": "Change from Baseline in CDSS Total Score, Mean (SD)", "setting": "[3]; 30 mg, Week 4", "value": "−0.63 (3.48)"}, {"measurement": "Change from Baseline in CDSS Total Score, Median", "setting": "[3]; 30 mg, Week 4", "value": 0.0}, {"measurement": "Change from Baseline in CDSS Total Score, Mean (SD)", "setting": "[3]; 30 mg, Week 6/Endpoint", "value": "−0.66 (3.64)"}, {"measurement": "Change from Baseline in CDSS Total Score, Median", "setting": "[3]; 30 mg, Week 6/Endpoint", "value": 0.0}, {"measurement": "CDSS Total Score, Trt Effect", "setting": "[3]; 40 mg versus placebo, Week 6/Endpoint", "value": 0.29}, {"measurement": "Change from Baseline in CDSS Total Score, Mean (SD)", "setting": "[3]; 40 mg, Week 1", "value": "−0.54 (2.56)"}]}]}
